The source of these data is US4880817A, “O-functionalized derivatives of substituted isoquinolin-3-ols having cardiotonic and/or phosphodiesterase fraction III inhibiting properties and/or renal vasodilating properties” (Ortho Pharmaceutical Corporation, priority 1987, dated 1989).

Read-outs that look alike come from different tables or passages of the source.

This test has as its system adult mongrel dogs. As to the kind of experiment: Renal vasodilating activity in anesthetized dogs. The class given is in vivo, mongrel dog. As to conditions: for change in vivo at 6.2 mg/kg / change in vivo at 1.2 mg/kg / change in vivo at 0.3 mg/kg / change in vivo at 1.34 mg/kg: Canis lupus familiaris; for MABP: percent change in mean arterial blood pressure / RBF: percent change in renal blood flow / RVR: percent change in renal vascular resistance: 1.2 mg/kg; for change in vivo at 1.34 mg/kg: dose 1.34 mpk. The protocol:
Goldberg et al., J. Pharmacol. Exp. Ther., 163, 188 (1968), performed an investigation of the structural requirements for dopamine-like renal vasodilation of phenethylamines and apomorphine. The following procedure is a variation of the assay described in that report.
Adult mongrel dogs were anesthetized and surgically prepared for electromagnetic measurement of renal artery blood flow. A carotid artery was cannulated for measuring arterial blood pressure and drugs were administered intravenously or intraarterially (via the renal artery). Heart rate was monitored with a cardiotachometer. Renal vascular resistance was calculated as the ratio of mean arterial blood pressure to renal artery blood flow. Dopamine was infused intravenously at 3 μg/kg/min for ten minutes (at an infusion rate of about 1 ml/min) to determine responsiveness of each dog to renal dopamine receptor stimulation. Cumulative dose-response data were obtained by infusing a compound of this invention at progressively increasing (usually three-fold) infusion rates, each dose being infused for five minutes. The maximum percent change from pre-drug control in renal artery blood flow (or in renal vascular resistance) was determined for each infusion dose.
RBF, RVR, MABP, and HR values are percent changes in renal blood flow, renal vascular resistance, mean arterial blood pressure, and heart rate, respectively, relative to control values.

Where [1] appears, read: dose 6.2 mpk, relative to controls, read-out: HR: percent change in heart rate.
The mark [2] stands for this setting: dose 6.2 mpk, relative to controls, read-out: MABP: percent change in mean arterial blood pressure.
[3] abbreviates: dose 6.2 mpk, relative to controls, read-out: RBF: percent change in renal blood flow.
Setting [4] is: dose 6.2 mpk, relative to controls, read-out: RVR: percent change in renal vascular resistance.
The mark [5] stands for this setting: read-out: HR: percent change in heart rate, dose 1.2 mpk, relative to controls.
Where [6] appears, read: read-out: MABP: percent change in mean arterial blood pressure, dose 1.2 mpk, relative to controls.
The mark [7] stands for this setting: read-out: RBF: percent change in renal blood flow, dose 1.2 mpk, relative to controls.
Setting [8] is: read-out: RVR: percent change in renal vascular resistance, dose 1.2 mpk, relative to controls.
The mark [9] stands for this setting: dose 1.2 mpk, relative to controls, read-out: HR: percent change in heart rate.
Where [10] appears, read: dose 1.2 mpk, relative to controls, read-out: MABP: percent change in mean arterial blood pressure.
Where [11] appears, read: dose 1.2 mpk, relative to controls, read-out: RBF: percent change in renal blood flow.
[12] abbreviates: dose 1.2 mpk, relative to controls, read-out: RVR: percent change in renal vascular resistance.
[13] abbreviates: read-out: HR: percent change in heart rate, dose 6.2 mpk, relative to controls.
Setting [14] is: read-out: MABP: percent change in mean arterial blood pressure, dose 6.2 mpk, relative to controls.
Setting [15] is: read-out: RBF: percent change in renal blood flow, dose 6.2 mpk, relative to controls.
[16] abbreviates: read-out: RVR: percent change in renal vascular resistance, dose 6.2 mpk, relative to controls.
The mark [17] stands for this setting: dose 1.2 mpk, relative to controls.

Turning to `CCOc1cc2c(C)nc(OS(C)(=O)=O)c([N+](=O)[O-])c2cc1OC` [Cmpd 6], the change in vivo at 6.2 mg/kg by setting is: under setting [1], -10%; under setting [2], -2%; under setting [3], 38%; under setting [4], -28%.
For `C=CCNC(=O)Nc1c(OC(=O)N(C(C)C)C(C)C)nc(C)c2cc(OC)c(OC)cc12` [Cmpd 62], the change in vivo at 1.2 mg/kg by setting is: under setting [5], 0%; under setting [6], 11%; under setting [7], 17%; under setting [8], -5%.
Taken in the same sequence, the figures for `CCCCNC(=O)Nc1c(OC(=O)N2CCNCC2)nc(C)c2cc(OC)c(OC)cc12` [Cmpd 80] were 2%, 0%, 25% and -16%.
Turning to `COc1cc2c(C)nc(OC(=O)c3ccc(Cl)cc3)c([N+](=O)[O-])c2cc1OC` [Cmpd 15], the change in vivo at 6.2 mg/kg under setting [1] came to 3%, the change in vivo at 6.2 mg/kg under setting [2] was -1%, the change in vivo at 6.2 mg/kg under setting [3] was determined as 15% and the change in vivo at 6.2 mg/kg under setting [4] was -14%.
Turning to `CCCCNC(=O)Nc1c(OS(=O)(=O)N(C)C)nc(C)c2cc(OC)c(OC)cc12` [Cmpd 64], the change in vivo at 1.2 mg/kg was 0% under setting [9], 4% under setting [10], 15% under setting [11] and -9% under setting [12].
Take `C=CCNC(=O)Nc1c(OC(=O)N(c2ccccc2)c2ccccc2)nc(C)c2cc(OC)c(OC)cc12` [Cmpd 60]: the change in vivo at 1.2 mg/kg by setting is: under setting [5], 8%; under setting [6], 4%; under setting [7], 27%; under setting [8], -17%.
For `CCOc1cc2c([N+](=O)[O-])c(OC(=O)N(C)C)nc(C)c2cc1OC` [Cmpd 24], the change in vivo at 6.2 mg/kg was 53% under setting [13], -12% under setting [14], 22% under setting [15] and -28% under setting [16].
Regarding `C=CCNC(=O)Nc1c(OC(=O)N2CCCC2)nc(C)c2cc(OC)c(OC)cc12` [Cmpd 59], the change in vivo at 1.2 mg/kg under setting [5] turned out to be 2%, the change in vivo at 1.2 mg/kg under setting [6] turned out to be 1%, the change in vivo at 1.2 mg/kg under setting [7] is 23% and the change in vivo at 1.2 mg/kg under setting [8] was -16%.
For `CCCCCC(=O)Nc1c(OC(=O)N(CC)CC)nc(C)c2cc(OC)c(OC)cc12` [Cmpd 81], the change in vivo at 6.2 mg/kg was -8% under setting [1], 9% under setting [2], 39% under setting [3] and -21% under setting [4].
In the case of `C=CCNC(=O)Nc1c(OC(=O)N(C)C)nc(C)c2cc(OC)c(OC)cc12` [Cmpd 67], under setting [5], the change in vivo at 1.2 mg/kg came out at 0%. Under setting [17], the “MABP: percent change in mean arterial blood pressure” value is reported as “+7 percent change”, the “RBF: percent change in renal blood flow” value was “+50 percent change” and the “RVR: percent change in renal vascular resistance” value is on record as -28 percent change.
Turning to `COc1cc2c(C)nc(OC(=O)N3CCN(C(=O)OC(C)(C)C)CC3)c([N+](=O)[O-])c2cc1OC` [Cmpd 68], the change in vivo at 0.3 mg/kg is 11% (read-out: HR: percent change in heart rate, dose 0.3 mpk, relative to controls); -1% (read-out: MABP: percent change in mean arterial blood pressure, dose 0.3 mpk, relative to controls); 17% (read-out: RBF: percent change in renal blood flow, dose 0.3 mpk, relative to controls); -13% (read-out: RVR: percent change in renal vascular resistance, dose 0.3 mpk, relative to controls).
As for `C=CCNC(=O)Nc1c(OC(=O)N(C)C)nc(C)c2cc(OC)c(OC)cc12` [Cmpd 40], under setting [17], the “MABP: percent change in mean arterial blood pressure” value is -1 percent change, the “RBF: percent change in renal blood flow” value was “+9 percent change” and the “RVR: percent change in renal vascular resistance” value is reported as -9 percent change.
For `CCCCNC(=O)Nc1c(OC(=O)N(CC)CC)nc(C)c2cc(OCC)c(OC)cc12` [Cmpd 45], the change in vivo at 1.2 mg/kg runs as follows: under setting [5], 11%; under setting [6], 12%; under setting [7], 15%; under setting [8], -2%.
`CCCCNC(=O)Nc1c(OC(=O)N(CC)CC)nc(C)c2cc(OC)c(OC)cc12` [Cmpd 38, 4-[N'-(n-Butylureido)]-3-diethylcarbamyloxy-6,7-dimethoxy-1-methylisoquinoline]: the change in vivo at 6.2 mg/kg under setting [13] was -4%, the change in vivo at 6.2 mg/kg under setting [14] amounted to 5%, the change in vivo at 6.2 mg/kg under setting [15] was determined as 34% and the change in vivo at 6.2 mg/kg under setting [16] is -21%.
Take `C=CCNC(=O)Nc1c(OS(=O)(=O)N(C)C)nc(C)c2cc(OC)c(OC)cc12` [Cmpd 65]: the change in vivo at 1.2 mg/kg by setting is: under setting [9], -7%; under setting [10], -1%; under setting [11], 25%; under setting [12], -22%.
Turning to `COc1cc2c(C)nc(OS(C)(=O)=O)c([N+](=O)[O-])c2cc1OC` [Cmpd 16], the change in vivo at 6.2 mg/kg reads like this: under setting [1], 19%; under setting [2], -6%; under setting [3], 12%; under setting [4], -16%.
Regarding `CCCCNC(=O)Nc1c(OC(=O)N(C(C)C)C(C)C)nc(C)c2cc(OC)c(OC)cc12` [Cmpd 61], the change in vivo at 1.2 mg/kg by setting is: under setting [5], 11%; under setting [6], -1%; under setting [7], 47%; under setting [8], -32%.
Taken in the same sequence, the figures for `CCCCNC(=O)Nc1c(OC(=O)N(c2ccccc2)c2ccccc2)nc(C)c2cc(OC)c(OC)cc12` [Cmpd 57] were 7%, 4%, 28% and -18%.
Taken in the same sequence, the figures for `C=CCNC(=O)Nc1c(OC(=O)N2CCN(C(=O)OC(C)(C)C)CC2)nc(C)c2cc(OC)c(OC)cc12` [Cmpd 75] were 12%, 9%, 27% and -15%.
As to `COc1cc2c(C)nc(OCOC(=O)C(C)(C)C)c([N+](=O)[O-])c2cc1OC` [Cmpd 77], the change in vivo at 6.2 mg/kg runs as follows: under setting [1], 5%; under setting [2], -3%; under setting [3], 7%; under setting [4], -8%.
As for `CCCCNC(=O)Nc1c(OC(=O)N2CCCC2)nc(C)c2cc(OC)c(OC)cc12` [Cmpd 55], the change in vivo at 1.2 mg/kg runs as follows: under setting [5], 2%; under setting [6], -4%; under setting [7], 14%; under setting [8], -14%.
Regarding `COc1cc2c(C)nc(OC(C)=O)c(Br)c2cc1OC` [Cmpd 1], the change in vivo at 1.34 mg/kg was 37% (relative to controls, read-out: HR: percent change in heart rate); -21% (relative to controls, read-out: MABP: percent change in mean arterial blood pressure); 22% (relative to controls, read-out: RBF: percent change in renal blood flow); 35% (relative to controls, read-out: RVR: percent change in renal vascular resistance).
As for `COc1cc2c(C)nc(OC(C)=O)c([N+](=O)[O-])c2cc1OC` [Cmpd 2, 3-Acetoxy-6,7-dimethoxy-1-methyl-4-nitroisoquinoline], the change in vivo at 6.2 mg/kg is -2% under setting [1], -8% under setting [2], 17% under setting [3] and -16% under setting [4].
On to `COc1cc2c(C)nc(OC(=O)N3CCCC3)c([N+](=O)[O-])c2cc1OC` [Cmpd 52], for which the change in vivo at 6.2 mg/kg reads like this: under setting [13], 0%; under setting [14], -15%; under setting [15], 41%; under setting [16], -37%.
For the compound `C=CCNC(=O)N(C(=O)NCC=C)c1c(OC(=O)N(CC)CC)nc(C)c2cc(OC)c(OC)cc12` [Cmpd 49], the change in vivo at 1.2 mg/kg under setting [9] is -6%, the change in vivo at 1.2 mg/kg under setting [10] came out at 2%, the change in vivo at 1.2 mg/kg under setting [11] turned out to be 14% and the change in vivo at 1.2 mg/kg under setting [12] was -8%.
With `CCN(CC)C(=O)Oc1nc(C)c2cc(OC)c(OC)cc2c1NC(=O)Nc1ccc(OC)cc1` [Cmpd 51], the change in vivo at 1.2 mg/kg reads like this: under setting [9], 25%; under setting [10], -6%; under setting [11], 17%; under setting [12], -20%.
